{
  "source": "patent US12303497B2",
  "about": "“Anti-androgens for the treatment of metastatic castration-sensitive prostate cancer” (priority 2019, dated 2025)",
  "key": {"patients with CRPC": {"tested_on": "patients with CRPC", "experiment": "Dedicated QT study (QTc interval)", "format": "in vivo, human", "from_the_text": "The maximum mean QTcF change from baseline was 12.4 ms (2-sided 90% upper CI. 16.0 ms)."}, "[1]": {"tested_on": "mouse xenograft models of prostate cancer", "experiment": "Mouse xenograft models of prostate cancer", "format": "in vivo", "settings": "decreased tumor cell proliferation and increased apoptosis"}, "[2]": {"experiment": "Effect of food on apalutamide pharmacokinetics (healthy subjects)", "format": "in vivo, human", "experimental": "Median time to reach tmax was delayed approximately 2 hours with food."}, "[3]": {"experiment": "Single oral administration of radiolabeled apalutamide (AUC share, excretion)", "format": "in vivo"}, "[4]": {"experiment": "Leuprolide PK sub-study in mCSPC subjects receiving leuprolide acetate", "format": "in vivo, human", "from_the_text": "Optional PK samples were/will be collected from at least 60 consenting subjects (in selected countries) who received or will receive leuprolide acetate as the GnRHa at the time of randomization. Samples were/will be collected on Day 1 of Cycles 1, 3, 4, 5, and 6 for analysis of leuprolide and testosterone concentrations.\nDescriptive statistics of leuprolide PK data will be summarized by treatment groups (with apalutamide or placebo) and dose of leuprolide acetate. […] The percentage of subjects with testosterone levels <50 ng/dL will be summarized descriptively by treatment groups."}, "[5]": {"tested_on": "bacterial reverse mutation (Ames) assay", "format": "cell-based"}, "[6]": {"tested_on": "in vitro chromosome aberration assay", "experiment": "In vitro chromosome aberration assay", "format": "cell-based"}, "male rats": {"tested_on": "male rats", "experiment": "Fertility study in male rats", "format": "in vivo, rat"}, "CYP2B6": {"biological_target": "CYP2B6 (Homo sapiens, UniProt P20813)", "sequence (P20813 whole entry)": "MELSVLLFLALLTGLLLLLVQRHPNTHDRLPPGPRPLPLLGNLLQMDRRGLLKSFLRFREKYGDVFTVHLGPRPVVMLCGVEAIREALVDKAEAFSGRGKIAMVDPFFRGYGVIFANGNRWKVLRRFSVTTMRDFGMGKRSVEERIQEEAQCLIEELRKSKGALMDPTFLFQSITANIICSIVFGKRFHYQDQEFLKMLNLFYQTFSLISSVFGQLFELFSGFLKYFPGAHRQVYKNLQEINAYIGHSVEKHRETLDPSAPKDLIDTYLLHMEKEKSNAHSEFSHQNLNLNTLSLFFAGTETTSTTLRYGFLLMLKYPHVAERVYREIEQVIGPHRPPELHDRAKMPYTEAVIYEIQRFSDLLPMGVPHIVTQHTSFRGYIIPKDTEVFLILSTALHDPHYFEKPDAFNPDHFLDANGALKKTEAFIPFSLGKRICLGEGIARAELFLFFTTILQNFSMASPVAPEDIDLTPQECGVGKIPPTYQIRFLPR", "experiment": "In vitro CYP inhibition"}, "CYP2C8 [7]": {"biological_target": "T1, CYP2C8 (Homo sapiens, UniProt P10632)", "T1 sequence (P10632 1-490)": "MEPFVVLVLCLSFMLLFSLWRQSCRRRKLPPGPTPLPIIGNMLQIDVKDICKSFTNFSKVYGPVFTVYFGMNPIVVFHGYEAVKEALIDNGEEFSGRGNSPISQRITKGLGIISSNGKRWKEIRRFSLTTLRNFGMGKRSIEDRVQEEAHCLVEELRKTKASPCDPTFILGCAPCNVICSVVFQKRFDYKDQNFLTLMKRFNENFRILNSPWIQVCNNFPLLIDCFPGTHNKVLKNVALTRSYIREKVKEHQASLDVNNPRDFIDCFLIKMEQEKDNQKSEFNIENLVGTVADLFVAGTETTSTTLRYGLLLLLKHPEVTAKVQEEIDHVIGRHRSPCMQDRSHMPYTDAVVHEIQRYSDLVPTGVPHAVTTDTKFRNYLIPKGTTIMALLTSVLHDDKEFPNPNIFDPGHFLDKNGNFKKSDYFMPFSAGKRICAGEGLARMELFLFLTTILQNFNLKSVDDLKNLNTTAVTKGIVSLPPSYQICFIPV", "experiment": "In vitro CYP inhibition"}, "[8]": {"biological_target": "organic anion transporter 1 (Homo sapiens, UniProt Q4U2R8)", "sequence (Q4U2R8 whole entry)": "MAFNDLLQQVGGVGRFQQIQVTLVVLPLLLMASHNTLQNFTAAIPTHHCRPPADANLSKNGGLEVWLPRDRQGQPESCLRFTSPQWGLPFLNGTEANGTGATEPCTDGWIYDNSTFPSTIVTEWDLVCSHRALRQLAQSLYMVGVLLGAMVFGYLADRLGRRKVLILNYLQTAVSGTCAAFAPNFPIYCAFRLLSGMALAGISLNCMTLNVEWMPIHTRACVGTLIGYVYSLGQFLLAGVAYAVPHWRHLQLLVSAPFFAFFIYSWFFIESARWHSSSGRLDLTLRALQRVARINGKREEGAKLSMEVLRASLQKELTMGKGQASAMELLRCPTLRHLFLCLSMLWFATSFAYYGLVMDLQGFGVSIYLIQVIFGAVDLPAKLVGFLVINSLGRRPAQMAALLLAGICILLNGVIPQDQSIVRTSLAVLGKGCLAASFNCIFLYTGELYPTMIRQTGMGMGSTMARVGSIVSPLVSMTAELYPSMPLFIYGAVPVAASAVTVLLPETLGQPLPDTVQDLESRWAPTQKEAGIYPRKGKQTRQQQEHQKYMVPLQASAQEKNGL", "experiment": "In vitro transporter inhibition"}, "P-gp": {"biological_target": "P-gp (Homo sapiens, UniProt P08183)", "sequence (P08183 whole entry)": "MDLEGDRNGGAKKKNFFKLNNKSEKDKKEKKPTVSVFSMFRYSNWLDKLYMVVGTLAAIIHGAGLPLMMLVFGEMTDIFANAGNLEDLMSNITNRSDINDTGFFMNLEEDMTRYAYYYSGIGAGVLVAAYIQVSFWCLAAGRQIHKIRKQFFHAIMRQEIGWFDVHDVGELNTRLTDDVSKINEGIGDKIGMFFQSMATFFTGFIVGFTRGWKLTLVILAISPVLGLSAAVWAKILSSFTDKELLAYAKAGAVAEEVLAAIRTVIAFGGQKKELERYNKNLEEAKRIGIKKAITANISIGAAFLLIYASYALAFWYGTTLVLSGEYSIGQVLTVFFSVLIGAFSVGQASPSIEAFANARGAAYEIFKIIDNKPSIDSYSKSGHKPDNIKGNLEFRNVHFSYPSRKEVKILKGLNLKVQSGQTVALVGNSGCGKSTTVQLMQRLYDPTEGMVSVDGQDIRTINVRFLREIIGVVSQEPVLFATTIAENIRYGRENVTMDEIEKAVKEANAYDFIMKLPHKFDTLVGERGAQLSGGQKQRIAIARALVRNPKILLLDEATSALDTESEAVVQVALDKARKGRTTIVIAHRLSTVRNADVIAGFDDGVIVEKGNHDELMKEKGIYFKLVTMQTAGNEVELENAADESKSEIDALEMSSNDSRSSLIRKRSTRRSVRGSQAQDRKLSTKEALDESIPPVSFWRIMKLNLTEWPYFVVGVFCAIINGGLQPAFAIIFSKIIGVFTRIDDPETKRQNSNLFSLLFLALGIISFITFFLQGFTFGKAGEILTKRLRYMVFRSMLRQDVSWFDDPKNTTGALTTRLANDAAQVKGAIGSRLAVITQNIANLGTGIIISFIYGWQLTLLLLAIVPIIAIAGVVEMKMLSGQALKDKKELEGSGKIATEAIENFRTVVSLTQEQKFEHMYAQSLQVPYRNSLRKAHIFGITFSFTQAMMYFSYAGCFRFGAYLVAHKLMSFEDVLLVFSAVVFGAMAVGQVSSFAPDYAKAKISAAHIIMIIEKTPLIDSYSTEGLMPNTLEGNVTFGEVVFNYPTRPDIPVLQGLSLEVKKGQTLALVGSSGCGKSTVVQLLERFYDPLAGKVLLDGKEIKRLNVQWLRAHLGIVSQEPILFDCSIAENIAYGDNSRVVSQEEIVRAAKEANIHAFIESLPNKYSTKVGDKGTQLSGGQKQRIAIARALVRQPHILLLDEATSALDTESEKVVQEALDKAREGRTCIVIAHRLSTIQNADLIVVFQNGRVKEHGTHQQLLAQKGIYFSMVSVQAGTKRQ", "experiment": "In vitro transporter substrate study"}, "BCRP": {"biological_target": "BCRP (Homo sapiens, UniProt Q9UNQ0)", "sequence (Q9UNQ0 whole entry)": "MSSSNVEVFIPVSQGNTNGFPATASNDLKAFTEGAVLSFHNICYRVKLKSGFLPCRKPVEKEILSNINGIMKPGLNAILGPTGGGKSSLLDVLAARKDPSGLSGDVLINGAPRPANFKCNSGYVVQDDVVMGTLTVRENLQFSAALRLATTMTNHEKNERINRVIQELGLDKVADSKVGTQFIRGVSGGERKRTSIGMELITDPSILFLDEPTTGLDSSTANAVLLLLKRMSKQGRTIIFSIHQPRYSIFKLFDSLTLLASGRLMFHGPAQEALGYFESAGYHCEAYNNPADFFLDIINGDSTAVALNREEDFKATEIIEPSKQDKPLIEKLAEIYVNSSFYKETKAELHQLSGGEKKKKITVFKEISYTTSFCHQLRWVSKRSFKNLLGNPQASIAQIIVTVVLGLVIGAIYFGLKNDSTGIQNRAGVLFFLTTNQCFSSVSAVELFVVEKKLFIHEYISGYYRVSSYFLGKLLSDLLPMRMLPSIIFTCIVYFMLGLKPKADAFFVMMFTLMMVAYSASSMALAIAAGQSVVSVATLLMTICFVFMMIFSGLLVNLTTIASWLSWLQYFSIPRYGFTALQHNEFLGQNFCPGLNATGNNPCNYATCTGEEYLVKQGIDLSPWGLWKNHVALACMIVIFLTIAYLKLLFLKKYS", "experiment": "In vitro transporter substrate study"}, "OATP1B1": {"biological_target": "OATP1B1 (Homo sapiens, UniProt Q9Y6L6)", "sequence (Q9Y6L6 whole entry)": "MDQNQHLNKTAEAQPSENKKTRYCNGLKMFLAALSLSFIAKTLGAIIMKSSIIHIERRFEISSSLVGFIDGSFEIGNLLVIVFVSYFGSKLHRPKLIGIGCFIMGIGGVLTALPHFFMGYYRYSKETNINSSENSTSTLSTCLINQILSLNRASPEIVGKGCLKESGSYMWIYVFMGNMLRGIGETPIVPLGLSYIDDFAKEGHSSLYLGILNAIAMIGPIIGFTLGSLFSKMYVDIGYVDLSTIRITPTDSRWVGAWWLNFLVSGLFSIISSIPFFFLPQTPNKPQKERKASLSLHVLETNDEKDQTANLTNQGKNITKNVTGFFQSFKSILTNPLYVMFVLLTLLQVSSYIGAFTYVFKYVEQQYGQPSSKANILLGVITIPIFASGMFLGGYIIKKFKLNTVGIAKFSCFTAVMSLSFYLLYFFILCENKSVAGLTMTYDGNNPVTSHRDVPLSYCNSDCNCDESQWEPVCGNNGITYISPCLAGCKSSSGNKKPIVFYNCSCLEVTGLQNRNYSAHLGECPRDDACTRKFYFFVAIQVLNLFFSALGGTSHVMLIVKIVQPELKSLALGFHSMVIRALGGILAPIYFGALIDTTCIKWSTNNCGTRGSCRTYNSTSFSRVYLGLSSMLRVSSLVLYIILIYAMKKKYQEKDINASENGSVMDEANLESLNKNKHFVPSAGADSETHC", "experiment": "In vitro transporter substrate study"}, "OATP1B3": {"biological_target": "OATP1B3 (Homo sapiens, UniProt Q9NPD5)", "sequence (Q9NPD5 whole entry)": "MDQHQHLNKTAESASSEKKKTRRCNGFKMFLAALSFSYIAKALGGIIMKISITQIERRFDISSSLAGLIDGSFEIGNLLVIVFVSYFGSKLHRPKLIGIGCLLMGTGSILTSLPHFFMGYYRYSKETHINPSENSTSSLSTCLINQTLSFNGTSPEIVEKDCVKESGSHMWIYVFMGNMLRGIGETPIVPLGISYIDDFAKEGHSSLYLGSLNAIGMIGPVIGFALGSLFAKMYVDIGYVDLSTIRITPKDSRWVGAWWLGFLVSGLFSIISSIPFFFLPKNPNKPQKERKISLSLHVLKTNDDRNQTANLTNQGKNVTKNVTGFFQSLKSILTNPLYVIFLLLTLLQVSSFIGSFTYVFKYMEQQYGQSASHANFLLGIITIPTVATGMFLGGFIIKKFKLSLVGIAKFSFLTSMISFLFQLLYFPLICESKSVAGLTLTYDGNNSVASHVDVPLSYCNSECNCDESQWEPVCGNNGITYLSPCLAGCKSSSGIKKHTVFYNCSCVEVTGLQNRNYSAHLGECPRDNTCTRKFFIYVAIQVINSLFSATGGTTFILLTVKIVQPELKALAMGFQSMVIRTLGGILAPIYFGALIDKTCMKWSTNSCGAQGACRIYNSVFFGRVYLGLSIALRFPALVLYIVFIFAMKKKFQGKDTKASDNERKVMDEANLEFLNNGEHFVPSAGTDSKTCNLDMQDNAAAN", "experiment": "In vitro transporter substrate study"}, "CYP2C8 [9]": {"biological_target": "T1, CYP2C8", "experiment": "Co-administration with gemfibrozil (strong CYP2C8 inhibitor)", "format": "in vivo", "parameters": "endogenous in cells; host or cells: human subjects, in vivo", "settings": "ERLEADA 240 mg single dose with gemfibrozil"}, "CYP2C8 [10]": {"biological_target": "T1, CYP2C8", "experiment": "Contribution of CYP2C8 in the metabolism of apalutamide", "parameters": "endogenous in cells; host or cells: human subjects, in vivo", "settings": "estimated", "from_the_text": "Metabolism is the main route of elimination of apalutamide."}, "[11]": {"experiment": "Clinical pharmacokinetics of apalutamide and N-desmethyl apalutamide"}, "[12]": {"settings": "up to 70 days after single oral radiolabeled dose"}},
  "data": [
    {"smiles": "CNC(=O)c1ccc(N2C(=S)N(c3cnc(C#N)c(C(F)(F)F)c3)C(=O)C23CCC3)cc1F", "note": "[Apalutamide, 4-[7-(6-cyano-5-trifluoromethylpyridin-3-yl)-8-oxo-6-thioxo-5,7-diazaspiro[3.4]oct-5-yl]-2-fluoro-N-methylbenzamide]", "values": [
      {"measurement": "Maximum mean QTcF change from baseline", "setting": "patients with CRPC; apalutamide 240 mg once daily, 45 patients with CRPC, 2-sided 90% upper CI 16.0 ms", "result": 12.4, "unit": "ms"},
      {"measurement": "Exposure-QT analysis", "setting": "patients with CRPC; in vivo", "result": "concentration-dependent increase in QTcF"},
      {"measurement": "Effect on tumors", "setting": "[1]", "result": "decreased tumor volume"},
      {"measurement": "Change in Cmax and AUC with a high-fat meal vs fasting", "setting": "[2]", "result": "no clinically relevant changes"},
      {"measurement": "Share of the total AUC", "setting": "[3]; single oral radiolabeled apalutamide 240 mg", "result": 45, "unit": "%"},
      {"measurement": "Dose recovered in feces", "setting": "[3]; [12]", "result": 24, "unit": "%"},
      {"measurement": "Dose recovered in feces as this compound", "setting": "[3]; [12]", "result": 1.5, "unit": "%"},
      {"measurement": "Dose recovered in urine", "setting": "[3]; [12]", "result": 65, "unit": "%"},
      {"measurement": "Dose recovered in urine as this compound", "setting": "[3]; [12]", "result": 1.2, "unit": "%"},
      {"measurement": "Effect on the steady-state exposure of leuprolide", "setting": "[4]", "result": "no apparent effect"},
      {"measurement": "Mutagenicity", "setting": "[5]", "result": "did not induce mutations"},
      {"measurement": "Genotoxicity", "setting": "[6]", "result": "not genotoxic"},
      {"measurement": "Dose at which a reduced number of live fetuses due to increased pre- and/or post-implantation loss was observed", "setting": "male rats; 4 weeks of administration", "result": 150, "unit": "mg/kg/day"},
      {"measurement": "Dose at which decreased sperm concentration and motility, abnormal sperm morphology, lower copulation and fertility rates, reduced secondary sex gland and epididymis weights were observed", "setting": "male rats; 4 weeks of dosing", "result": "≥ 25", "unit": "mg/kg/day"},
      {"measurement": "Time after last administration at which effects on male rats were reversible", "setting": "male rats; rat, in vivo", "result": 8, "unit": "weeks"},
      {"measurement": "CYP2B6 inhibition", "setting": "CYP2B6", "result": "moderate inhibitors"},
      {"measurement": "CYP2C8 inhibition", "setting": "CYP2C8 [7]", "result": "moderate inhibitors"},
      {"measurement": "Inhibition of organic anion transporter 1", "setting": "[8]", "result": "do not inhibit"},
      {"measurement": "Substrate for P-gp", "setting": "P-gp", "result": "substrates"},
      {"measurement": "Substrate for BCRP", "setting": "BCRP", "result": "not"},
      {"measurement": "Substrate for OATP1B1", "setting": "OATP1B1", "result": "not"},
      {"measurement": "Substrate for OATP1B3", "setting": "OATP1B3", "result": "not"},
      {"measurement": "Apalutamide AUC increase", "setting": "CYP2C8 [9]", "result": 68, "unit": "%"},
      {"measurement": "Apalutamide Cmax decrease", "setting": "CYP2C8 [9]", "result": 21, "unit": "%"},
      {"measurement": "Contribution of CYP2C8 in the metabolism of apalutamide", "setting": "CYP2C8 [10]; at steady-state", "result": 40, "unit": "%"},
      {"measurement": "Contribution of CYP2C8 in the metabolism of apalutamide", "setting": "CYP2C8 [10]; following single dose", "result": 58, "unit": "%"},
      {"measurement": "CL/F", "setting": "[11]; after single dosing", "result": 1.3, "unit": "L/h"},
      {"measurement": "Pharmacokinetics in specific populations", "setting": "[11]; age 18-94 years, race, mild to moderate renal impairment, mild to moderate hepatic impairment", "result": "No clinically significant differences"},
      {"measurement": "CL/F", "setting": "[11]; at steady-state after once-daily dosing", "result": 2.0, "unit": "L/h"},
      {"measurement": "Mean apparent volume of distribution at steady-state", "setting": "[11]; human, in vivo", "result": "approximately 276 L"},
      {"measurement": "Median time to achieve peak plasma concentration (tmax)", "setting": "[11]; range: 1 to 5 hours", "result": 2, "unit": "h"},
      {"measurement": "Time to steady-state", "setting": "[11]; recommended dosage (240 mg once daily)", "result": 4, "unit": "weeks"},
      {"measurement": "AUC at steady-state, mean", "setting": "[11]; recommended dosage, SD 32 (apalutamide), 23 (N-desmethyl apalutamide)", "result": 100, "unit": "µg·h/mL"},
      {"measurement": "Dose dependence of Cmax and AUC", "setting": "[11]; repeated once-daily dosing of 30 to 480 mg", "result": "increased proportionally"}
    ]}
  ]
}
